{
  "source": "patent US12662707B2",
  "about": "“MYC amplification drives resistance to pan-RAS inhibitors in pancreatic cancer” (The Trustees of Columbia University in the City of New York, priority 2024, dated 2026)",
  "key": {"[1]": {"tested_on": "RAS/MAPK pathway (pERK) in murine PDAC cell lines", "assay": "Western blot of pERK, murine PDAC cell lines", "format": "cell-based", "conditions": "1-100 nM, 2 hours", "method": "Cells were seeded at 7.5×10^5-4×10^6 cells per well in 6-well plates or 100 mm dishes in growth medium. After overnight incubation, indicated compound (RMC-7977, IAG933 or DMSO (0.1% v/v)) were added and incubated for the indicated time points. Cells were washed twice with ice-cold PBS and lysed with NP-40 lysis buffer (Thermo Fisher Scientific, J60766), MSD Tris Lysis Buffer (MSD, R60TX-2), RIPA buffer (50 mM TRIS-HCl, pH 7.5, 150 mM NaCl, 1% NP-40, 0.5% sodium deoxycholate, 0.1% SDS) or a lysis buffer containing 1% Triton X-100, 20 mM Tris-HCl, 150 mM NaCl, and 1 mM EDTA. All lysis buffers were supplemented with protease and phosphatase inhibitors. Lysates were scraped and collected before centrifugation at 21,000×g for 10 minutes at 4° C. The protein-containing supernatants were quantified by BCA assay (Pierce, 23225) and equal quantities of protein were denatured with LDS and reducing agent at 95° C. Samples were resolved on 12% or 4-12% Bis-Tris polyacrylamide gels, then transferred to a nitrocellulose or PVDF membrane using the iBlot 2.0 system or wet transfer. Membranes were blocked in Intercept TBS buffer (LiCor, 927-60001) or 3-5% milk before probing with primary antibodies overnight at 4° C. Secondary antibodies were added as appropriate, and the membranes were imaged on a LiCor Odyssey imager. […]"}, "[2]": {"tested_on": "human PDAC xenograft models", "assay": "Human PDAC xenograft (CDX/PDX) tumor growth studies", "format": "in vivo, mouse", "conditions": "10 mg/kg daily", "method": "Studies were conducted at the following CROs: GenenDesign (Shanghai, China), Pharmaron (Beijing, China), and Wuxi AppTec (SuZhou, China). All CDX/PDX mouse studies and procedures related to animal handling, care and treatment were conducted in compliance with all applicable regulations and guidelines of the relevant Institutional Animal Care and Use Committee (IACUC). Female BALB/c nude mice and NOD SCID mice 6-8 weeks old from Beijing Vital River/VR Laboratory Animal Co., LTD, Beijing AniKeeper Biotech Co., Ltd., and Shanghai Sino-British SIPPR/BK Laboratory Animal Co., LTD were used for these studies.\nIn order to generate subcutaneous xenograft tumors each mouse was inoculated at the right flank with tumor cells (2×10^6-1×10^7) in 100-200 μl of media/PBS supplemented with Matrigel (1:1). Treatments were started when the average tumor volume reached 150-250 mm^3 (for tumor growth evaluation) and 400-600 mm^3 (for single dose pharmacokinetic/pharmacodynamic (PK/PD) study). Tumor diameter was measured in two dimensions using a digital caliper, and the tumor volume in mm^3 was calculated using the formula: Volume=((width)2×length)/2. Mice on studies were weighed and tumors were measured 2 times a week.\nThe human primary cancer xenograft models were generated using fresh tumor fragments obtained from hospitals with informed consent from the patients in accordance with protocols approved by the Hospital Institutional Ethical Committee (IEC). The tumor fragments were serial passaged in BABL/c nude mice and then cryopreserved for further use. For this study, recovered tumor fragments of about 15-30 mm^3 in size from each model were implanted into right flanks of BALB/c nude mice. Treatment started when average tumor volume reached 150-250 mm^3.\nTo generate orthotopic xenograft tumors, survival surgeries were carried out and 2×10^6 5×10^6 luciferase-expressing tumor cells in 30-50 μL Media/Matrigel mixtures (1:1) were implanted directly into the mouse pancreas. Treatments were started when the tumors produced an average of 50-80×10^7 photon/second as measured by the in vivo imaging system (IVIS). All subsequent tumor measures were also conducted by IVIS. For routine monitoring, mice were injected intraperitoneally with 15 mg/mL (at 5 μL/g BW) of D-Luciferin (Perkin Elmer) and imaged, after which Living Image software (Perkin Elmer) was used to compute regions of interest (ROI) and tumor volumes.\nTumor-bearing animals were randomized and assigned into groups (n=3-10/group). Vehicle or RMC-7977 was administered via oral gavage daily at 10 mg/kg and animals were treated for 21-28 days. Studies were terminated early if tumor burden reached humane endpoint. Body weights were collected twice a week during the study. Means±s.e.m were plotted in the waterfall plots. For the single-dose pharmacokinetic/pharmacodynamic (PK/PD) study, mice were randomized and assigned into groups (n=3-6/dose/timepoint). A single dose of RMC-7977 was administered orally at 10 mg/kg, 25 mg/kg and 50 mg/kg. Tissues (including tumor, colon and skin) were harvested at indicated time points and either fixed in 10% formalin, embedded in Optimal Cutting Temperature (OCT; Sakura, 4583) solution or snap-frozen in LN2 for further analysis. Whole blood was transferred into K2EDTA Microtainer tubes (BD, 365974), incubated for 5 minutes and snap-frozen in LN2."}, "murine PDAC cell lines": {"tested_on": "murine PDAC cell lines", "assay": "Murine cell viability assay", "format": "cell-based", "conditions": "most murine PDAC cell lines; 72 hours", "method": "PDAC murine cell lines harboring KrasG12D or KrasG12C mutations were seeded at 2×10^3 in a 96-well plate. Cells were treated 24 hours later with DMSO or serial dilutions of RMC-7977. Cell viability was evaluated 72 hours later by measuring adenosine triphosphate (ATP) levels using the CellTiter-Glo® Luminescent Cell Viability Assay (Promega, G7572) according to the manufacturer's instructions. For experiments comparing naive and resistant cell lines, live cells were fluorescently labelled using Calcein AM (20-minute incubation at 500 nM, Thermo Fisher) and counted using the SpectraMax i3X multimode detection platform (Molecular Devices). Technical triplicates were run for each biological replicate and a total of 3-4 biological replicates was done for each cell line. Growth percentage was calculated by normalizing drug-treated values to DMSO control, which was set to 100%. Four-parameter drug response curves were generated from 3+ biological replicates in GraphPad Prism. Mean±s.d. was plotted for each tested dilution."}},
  "data": [
    {"molecule": "CCn1c(-c2cc(N3CCN(C4CC4)CC3)cnc2[C@H](C)OC)c2c3cc(ccc31)-c1csc(n1)C[C@H](NC(=O)[C@H]1[C@@H]3COC[C@@H]31)C(=O)N1CCC[C@H](N1)C(=O)OCC(C)(C)C2", "note": "[RMC-7977]", "values": [
      {"measurement": "phosphorylation of ERK1/2 (pERK)", "setting": "[1]", "value": "reduced phosphorylation"},
      {"measurement": "models with tumor regressions", "setting": "[2]; 21-28 days", "value": "7/10"},
      {"measurement": "response of KRASQ61H mutant HS-766T line in CDX setting", "setting": "[2]; HS-766T CDX", "value": "among the most responsive"},
      {"measurement": "tolerability", "setting": "[2]; all 10 models", "value": "well tolerated"},
      {"measurement": "anti-tumor activity", "setting": "[2]; all 10 models, 21-28 days", "value": "significant anti-tumor activity"},
      {"measurement": "body weight over time", "setting": "[2]; treated animals", "value": "stable body weight"},
      {"measurement": "potency in concentration-response cell viability assays", "setting": "murine PDAC cell lines", "value": "low nanomolar potency"}
    ]}
  ]
}
